# Reference: patent publication US10117890B2, “Methods and compositions for treating pain” (Academia Sinica, priority 2012, dated 2018)
# “Also recorded” adds a separate entry of the source.
# How the values were obtained:
# [1] = system: muscle nociceptors (ASIC3-positive muscle afferent DRG neurons expressing ISP-O); assay: Whole-cell patch-clamp recording of outward currents in muscle afferent DRG neurons; format: cell-based, mice; settings: for induction of outward current in ASIC3/SP-expressing muscle DRG neurons: SP-sensitive muscle nociceptors; for inhibition of T1-11-induced outward current (IT1-11) by adenosine receptor antagonists: muscle nociceptors
# Protocol: The digested DRG neurons were washed with fetal calf serum (FCS)-free DMEM or DMEM containing 10% FCS during each treatment. Fully digested DRGs were triturated and plated on poly-L-lysine-coated cover slides. Cell cultures were maintained in a 5% CO2 incubator at 37° C.
# Whole-cell patch-clamp recordings of muscle-afferent neurons involved use of Axopatch MultiClamp 700B (Axon Instruments). Neurons with membrane potential >−40 mV were discarded. The bridge was balanced in current-clamp recording, and the series resistance was compensated 70% in voltage-clamp recording with […] 700B compensation circuitry. All experiments were performed at room temperature (21-25° C.) and completed within 30 hr post-seeding. Unless specifically mentioned, the patch pipettes were prepared in 1-5 MΩ and filled with internal solution containing (in mM) 100 KCl, 2 Nae-ATP, 0.3 Na3-GTP, 10 EGTA, 5 MgCl2, and 40 HEPES, adjusted to pH 7.4 with KOH. Recording cells were superfused in artificial cerebrospinal fluid (ACSF) by control with gravitational force. The ACSF contained (in mM) 130 NaCl, 5 KCl, 1 MgCl2, 2 CaCl2, 10 glucose, and 20 HEPES, adjusted to pH 7.4 with NaOH. Osmolarity was adjusted to 300 mOsm. The acidic ACSF was titrated to pH 6.8 by […]. […] If not specifically mentioned, drugs listed above were from Sigma Chemical (St. Louis, Mo.).
# The procedure was repeated at least 2 times to ensure consistent data. […] ACSF-containing compounds were superfused for 1 min to ensure complete replacement of previous perfusate between treatments. […] A recording pipette containing 1 mM GDP-β-S was used in GTP dialysis. The GABA-B current was induced by 100 μM Baclofen at the beginning of dialysis (0, 1 and 2 min after whole-cell patch clamp). Then, Baclofen was used to re-stimulate the dialyzed neurons after 10-min dialysis (10, 11 and 12 min after whole-cell patch clamp).
# [2] = system: ICS-induced pain; assay: Intermittent cold stress (ICS) mouse model of fibromyalgia, von Frey test; format: in vivo, mice; settings: SM-substance P 0.6 mg/kg alone
# Protocol: Mechanical hyperalgesia was assessed by applying a 0.2 mN von Frey filament to the plantar surface of both hind paws. For each paw, the filament was applied for 5 times at 30-s intervals.
# To induce fibromyalgia-like symptoms, mice were treated with intermittent cold stress, which produces long-lasting (more than 2 weeks) thermal hyperalgesia and mechanical allodynia, predominantly in females. Method: Mice were placed on stainless mesh plate in a cold room at 4° C. overnight (from 4:30 pm to 10:00 am), followed by intermittent cold stress with environment temperatures alternating between 24 and 4° C. every 30 min, from 10:00 am to 4:30 pm. These procedures were repeated twice. On day 3, the mice were adapted to 24 C for 1 h before behavioral testing.
# The second fibromyalgia model is developed by Ueda's group, in which mice were treated with intermittent cold stress for 2 days (Nishiyori & Ueda, 2008). Mice treated with intermittent cold stress will develop long-lasting (>2 weeks) mechanical and thermal hyperalgesia. Analgesic effect of T1-11 was tested in these mice 5 day after intermittent cold stress (ICS). […] Moreover, we found T1-11 and substance P have synergistic effect in treating the ICS-induced pain.
# [3] = system: acid(ASIC3)-induced chronic muscle pain; assay: Acid-induced chronic muscle pain model (repeated intramuscular acid injection, von Frey test); format: in vivo, mice; settings: for acid-induced hyperalgesia, co-injection with acidic saline: 1 nmole, i.m.
# Source text: Adult (8- to 12-wk-old) C57/BL6 mice were used. All procedures followed the Guide for the Use of Laboratory Animals (National Academy Press, Washington D.C., USA) and were approved by the Institutional Animal Care and Use Committee of Academia Sinica. We aimed to minimize the number of animals used and their suffering without compromising the quality of the experiments. The generation and genotyping of Tac1^−/− mice and Asic3^−/− mice were as described. Both null mutant mice were backcrossed to C57/BL6 for 10 generations to establish a congenic strain. Congenic Tac1^−/− Asic3^−/− mice were offspring of Tacl^+/− and Asic3^+/− intercrosses.
# Mice received an intramuscular acid injection in the gastrocnemius muscle (GM) containing 20 μl acid saline (pH 4.0) with or without (Sar^9, Met(O2)^11)-substance P (SP; 4, 10, or 40 μM) or 100 μM RP67580 or 200 μM XE991. Mechanical hyperalgesia was assessed by applying a 0.2-mN von Frey filament to the plantar surface of both hind paws of mice. Mice were acclimatized in an acrylic cubicle for 60 min before testing. A positive response was defined as the foot lifting when the von Frey filament was applied. For each paw, the filament was applied 5 times at 30-sec intervals. Responses of the paw to mechanical stimuli were measured before injection and at 4 and 24 hr and 5 days after the first acid injection (day 0) and at 4, 24, and 72 hr and 1 week after the second acid injection (day 5). For single-injection experiments, responses to mechanical stimuli were measured before the injection, at 4 hr and at 1, 3, 5, 7, 9, 11, 13, 15 and 22 days after the injection or at 4, 24, 48 hr and 7 and 14 days after the injection. NK1-selective agonist ((Sar^9, Met(O2)^11)—SP) was from Sigma Chemical (St. Louis, Mo.). NK1-selective antagonist (RP67580) and XE991 were from Tocris (Avonmouth, UK). The experimenters were blinded to the experimental manipulations. The person who conducted von Frey test had no information of the mouse genotypes or drug injections.
# [4] = system: ASIC3; assay: Whole-cell patch clamp of acid-induced current in CHO cells transfected with ASIC3; format: cell-based
molecule,measurement,setting,value
OC[C@H]1O[C@@H](n2cnc3c(NCc4cccc(O)c4)ncnc32)C(O)C1O (some centres unmarked) [JMF1998],induction of outward current in ASIC3/SP-expressing muscle DRG neurons,[1],can also induce outward currents
OC[C@H]1O[C@@H](n2cnc3c(NCc4ccc(Br)cc4)ncnc32)C(O)C1O (some centres unmarked) [JMF2665],induction of outward current in ASIC3/SP-expressing muscle DRG neurons,[1],can also induce outward currents
"(Sar^9, Met(O2)^11)-substance P [SM-substance P, reference compound]","analgesic effect on ICS-treated mice, SM-substance P alone",[2],did not show analgesic effect
OC[C@H]1O[C@@H](n2cnc3c(NCCc4c[nH]c5ccccc45)ncnc32)C(O)C1O (stereo in doubt) [JMF1907],induction of outward current in ASIC3/SP-expressing muscle DRG neurons,[1],can also induce outward currents
"CCNC(=O)[C@H]1O[C@@H](n2cnc3c(N)nc(NCCc4ccc(CCC(=O)O)cc4)nc32)C(O)C1O (stereo in doubt) [CGS21680, reference compound]","acid-induced hyperalgesia, co-injection with acidic saline",[3],partially inhibited acid-induced hyperalgesia; also recorded: showed partial analgesic effect
same,outward current in A2A−/− muscle afferent DRG neurons,[1]; CGS21680 high dose 10 μM,induces an outward current
same,induction of outward current in ASIC3/SP-expressing muscle DRG neurons,[1],can also induce outward currents
"CCCn1cc2c(nc(NC(=O)Nc3ccc(OC)cc3)n3nc(-c4ccco4)nc23)n1 [MRE3008F20, reference compound]",inhibition of T1-11-induced outward current (IT1-11) by adenosine receptor antagonists,[1],reversely inhibited
CNC(=O)[C@H]1O[C@@H](n2cnc3c(NCc4cccc(I)c4)ncnc32)[C@H](O)[C@@H]1O [IB-MECA],"acid-induced hyperalgesia, co-injection with acidic saline",[3],has no effect on acid-induced hyperalgesia; also recorded: did not have analgesic effect
APETx2,"acid-induced hyperalgesia, co-injection of acid and APETx2",[3]; APETx2 2 pmole at the first acid injection,abolished the transient hyperalgesia and prevented the development of chronic hyperalgesia
"O=C(O)c1ccccc1O [salicylic acid, reference compound]",acid-induced current in CHO cells transfected with ASIC3,[4],blocked
"COc1ccccc1CC(=N)N1C[C@@H]2C(=O)CCC(c3ccccc3)(c3ccccc3)[C@@H]2C1 [RP67580, reference compound]",inhibition of IT1-11 by NK1 receptor antagonist,[1]; RP67580 (10 n=17),inhibited IT1-11
"O=C(Cc1ccccc1)Nc1nc2ccc(Cl)cc2c2nc(-c3ccco3)nn12 [MRS1220, reference compound]",effect of antagonist on the analgesic effect of T1-11,[3]; MRS1220 200 pmole i.m.,abolished the analgesic effect of T1-11
same,inhibition of T1-11-induced outward current (IT1-11) by adenosine receptor antagonists,[1],reversely inhibited
